Assay results published in PMC7002685, “Inhibition of vascular calcification by inositol phosphates derivatized with ethylene glycol oligomers” (Nature Communications, 2020).
Values joined by “and” are separate entries in the source; they are usually repeats but may differ in a detail not shown here. Identical values can stand only once. Like-named read-outs stand apart in the source and are kept apart here.

Columns and labels:
[1] = PK i.v. bolus in healthy and adenine/high-phosphate-diet (uremic) rats; type: in vivo, male Sprague-Dawley rats; parameters: plasma concentration (Figure 4g): unit not given here; conditions: for AUC(0-inf) / Cmax / clearance / half-life / AUC(0-t) / MRT last: serum, 10 mg/kg i.v. bolus; for AUC(0-t): read-out: AUC0-240 (converted); for MRT last: read-out: MRT0-240 (converted)
Experimental: For many drugs, the PK profile depends on the patient’s renal status. Therefore, (OEG2)2-IP4 PK profile was also determined in an adenine and high-phosphate-diet-induced rat model of uremia, in which the compound was administered after serum creatinine levels had increased by fourfold relative to baseline (Fig. 4g, h). […] Similar results were observed following s.c. administration (Supplementary Table 5).
To study PK in uremic animals, male Sprague-Dawley rats (Charles River Laboratories, L’Arbresle, France) were housed two per cage with free access to water and standard chow (rat/mouse maintenance diet, SSNIFF Spezialdiäten GmbH, Soest, Germany) and submitted to a 12-h light/dark cycle. Animals were fed a low-protein (2.5%) diet containing high phosphorus (1.3% phosphorus and 0.7% calcium) and 0.3% adenine to induce uremia (SSNIFF Spezialdiäten GmbH). Control animals were fed same diet but without adenine. Every 10 days, a sample of blood was punctured at the tail vein of each animal. Serum and urine creatinine, calcium, and phosphorus were then assessed using standard colorimetric biochemistry analysis (Cobas Mira, Roche, Basel, Switzerland). When a fourfold increase of creatinine was observed compared to control, the rat was considered uremic and suitable for PK experiments. The method was validated using eight animals on control- and adenine-supplemented diet respectively. For PK studies, on the morning of the experimental day, a catheter was inserted in the right carotid artery under halothane anesthesia. Subsequently, rats were allowed to recover for 3 h and uremic and non-uremic rats, respectively, were assigned to three groups of six rats each. […] Blood aliquots were drawn after drug administration, centrifuged, decanted, and stored at −80 °C until serum drug quantification by LC-MS, as well as analysis of serum creatinine, calcium, and phosphorus (Cobas Mira).
The bioanalytical method for (OEG2)2-IP4 in rat plasma was further optimized, qualified, and applied to the comparative PK study in adenine and high-phosphate diet-induced VC vs. vitamin D-induced VC animals. The LC-MS/MS analyses were carried out using a Dionex Ultimate RSLC ultra-high-pressure liquid chromatography (UHPLC) system (Thermo Fisher Scientific) coupled with a TSQ Quantiva^TM triple quadrupole mass spectrometer. The samples were stored at 5 °C in the autosampler prior to and during the analyses. […] Gradient elution (solvent A, 20 mM ammonium acetate in water (pH 5); solvent B, ACN) was used according to the program reported in Supplementary Table 18. The injection volume was 10 µL. MS/MS parameters (MRM acquisition, cycle time 0.2 s) for (OEG2)2-IP4 are reported in Supplementary Table 19 and the ESI source, working in negative ionization mode, applied the following parameters: static spray voltage 3000 V ion transfer tube and vaporizer temperatures at 400 and 100 °C, respectively; sheath and auxiliary gas (nitrogen) flow rates at 80 and 3 (arbitrary units). For the quantitative determination in rat plasma, product ion m/z 158.9 was selected because it provided the best sensitivity and selectivity. Calibration curve and quality control samples were prepared by adding 2 μL of working solution to 38 μL rat blank K3EDTA plasma (Biochemed, Winchester, VA) and precipitating plasma protein by addition of 120 μL of MeOH including internal standard OEG11-IP5. Samples were vortexed 1 min and centrifuged at (22,000 × g, 4 °C, 10 min). Supernatants (90 μL) were then transferred into a glass vial with insert and injected onto LC-MS/MS system. Both in adenine and high-phosphate diet-induced VC and vitamin D-induced VC rat PK samples were prepared for analysis in an analogous manner as done for spiked samples (assay volume 40 μL). The LLOQ and LOD in rat plasma for (OEG2)2-IP4 were 50 and 10 ng/mL, respectively. The ULOQ and detection was 50,000 ng/mL.

[2] = molecular target: T1, ATPase, Na+/K+, Heart, Pig (Sus scrofa, UniProt P05024); experiment: Off-target 107710; type: biochemical
T1 construct: purchased Eurofins Panlabs Discovery Services Taiwan, Ltd
Experimental: The potential off-target activity of 10 µM (OEG2)2-IP4 was assessed against a panel of 87 enzymes, receptors, or ion channels that are used in standard safety pharmacology screens.
3.2. Off-target screening assay
The experiments were conducted by a contract research organization (Eurofins Panlabs Discovery
Services Taiwan, Ltd.) and details on the respective assays can be retrieved via the catalog number
provided in Supplementary Table 11 from the company’s webpage
(https://www.eurofinsdiscoveryservices.com/). […]

[3] = male, Sprague-Dawley, rat, iv, 10 mg/kg, Healthy
[4] = male, Sprague-Dawley, rat, iv, 10 mg/kg, Uremic

Structure (SMILES): COCCOCCO[C@@H]1[C@@H](OP(=O)(O)O)[C@H](OCCOCCOC)[C@@H](OP(=O)(O)O)[C@@H](OP(=O)(O)O)[C@H]1OP(=O)(O)O [(OEG2)2-IP4, 4,6-Di-O-(methoxy-diethyleneglycol)-myo-inositol-1,2,3,5-tetrakis(phosphate)]
- fold longer t1/2 in uremic rats ([1]; 10 mg/kg i.v.): 1.6 fold
- plasma concentration (Figure 4g) ([1]; Healthy, i.v., Time 5 min, individual rats): 34.3554 and 28.9453 and 26.4893 and 36.6347 and 33.1433
- plasma concentration (Figure 4g) ([1]; Healthy, i.v., Time 0.25 h, individual rats): 30.5208 and 13.9972 and 12.439 and 10.9827 and 13.2633 and 11.7166
- plasma concentration (Figure 4g) ([1]; Healthy, i.v., Time 0.5 h, individual rats): 27.5306 and 9.488 and 4.56 and 3.6178 and 4.794 and 4.014
- plasma concentration (Figure 4g) ([1]; Healthy, i.v., Time 1 h, individual rats): 9.6556 and 4.29 and 0.6765 and 0.5745 and 0.5328 and 0.7985
- plasma concentration (Figure 4g) ([1]; Healthy, i.v., Time 2 h, individual rats): 7.991 and 1.14 and 0.125 and 0.07468 and 0.07899 and 0.1206
- plasma concentration (Figure 4g) ([1]; Healthy, i.v., Time 3 h, individual rats): 3.3004 and 0.5084 and 0.05745 and 0.03303 and 0.0316 and 0.04883
- plasma concentration (Figure 4g) ([1]; Healthy, i.v., Time 4 h, individual rats): 2.7015 and 0.1767 and 0.01436 and 0.02585 and 0.02298 and 0.0316
- plasma concentration (Figure 4g) ([1]; Uremic, i.v., Time 5 min, individual rats): 32.8173 and 29.5312 and 43.7899 and 28.895 and 62.6472 and 41.0266
- plasma concentration (Figure 4g) ([1]; Uremic, i.v., Time 10 min, individual rats): 43.2182 and 28.9366
- plasma concentration (Figure 4g) ([1]; Uremic, i.v., Time 0.25 h, individual rats): 27.5292 and 20.3309 and 31.0464 and 22.8615
- plasma concentration (Figure 4g) ([1]; Uremic, i.v., Time 0.5 h, individual rats): 20.0681 and 12.3154 and 17.5978 and 17.7285
- plasma concentration (Figure 4g) ([1]; Uremic, i.v., Time 1 h, individual rats): 13.305 and 19.9618 and 12.7047 and 6.171 and 9.641 and 11.83
- plasma concentration (Figure 4g) ([1]; Uremic, i.v., Time 1.5 h, individual rats): 9.875 and 10.075
- plasma concentration (Figure 4g) ([1]; Uremic, i.v., Time 2 h, individual rats): 4.81 and 2.841 and 7.088 and 3.03 and 4.689 and 9.284
- plasma concentration (Figure 4g) ([1]; Uremic, i.v., Time 3 h, individual rats): 1.893 and 4.314 and 1.879 and 2.2534
- plasma concentration (Figure 4g) ([1]; Uremic, i.v., Time 4 h, individual rats): 1.159 and 0.6736 and 3.1697 and 1.081 and 1.337
- concentration at 5 min ([1]; male, Sprague-Dawley, rat, plasma, iv, 10 mg/kg, Healthy, i.v., Time 5 min, individual rats, read-out: plasma concentration (Figure 4g)): 51.8 µM
- concentration at 10 min ([1]; male, Sprague-Dawley, rat, plasma, iv, 10 mg/kg, Healthy, i.v., Time 10 min, individual rats, read-out: plasma concentration (Figure 4g)): 36.1 µM
- concentration at 10 min ([1]; male, Sprague-Dawley, rat, plasma, iv, 10 mg/kg, Uremic, i.v., Time 10 min, individual rats, read-out: plasma concentration (Figure 4g)): 46 µM
- concentration at 0.25 h ([1]; male, Sprague-Dawley, rat, plasma, iv, 10 mg/kg, Uremic, i.v., Time 0.25 h, individual rats, read-out: plasma concentration (Figure 4g)): 27.7 µM
- concentration at 0.5 h ([1]; male, Sprague-Dawley, rat, plasma, iv, 10 mg/kg, Uremic, i.v., Time 0.5 h, individual rats, read-out: plasma concentration (Figure 4g)): 19 µM
- concentration at 1.5 h ([1]; male, Sprague-Dawley, rat, plasma, iv, 10 mg/kg, Uremic, i.v., Time 1.5 h, individual rats, read-out: plasma concentration (Figure 4g)): 7.2 µM
- AUC(0-inf) [1, 3]: 18.5 µM·h
- Cmax [1, 3]: 35 ± 9 µM
- clearance [1, 3]: 17.9 ± 7.7 mL/min/kg
- half-life [1, 3]: 52 ± 14 min
- AUC(0-t) [1, 3]: 17.8 µM·h
- MRT last [1, 3]: 26 min
- AUC(0-inf) [1, 4]: 45.6 µM·h
- Cmax [1, 4]: 43 ± 12 µM
- clearance [1, 4]: 5.8 ± 2 mL/min/kg
- half-life [1, 4]: 83 ± 47 min
- AUC(0-t) [1, 4]: 37 µM·h
- MRT last [1, 4]: 53 min
- inhibition at 10 µM [2]: 6%
